Results taken from publication PMC9828244, “Molecular and functional characterization of an evolutionarily conserved CREB‐binding protein in the Lymnaea CNS” (The FASEB Journal, 2022).

Biological target: T1, LymCBP HAT domain (Lymnaea stagnalis, UniProt E2QC33)
T1 construct: HAT (catalytic) domain, R1240 to K1641 of LymCBP, His6-tag, pET28a(+), expressed in E. coli Rosetta-gami 2(DE3); cDNA from Lymnaea CNS; Ni-NTA and cation exchange
Assay: autoradiography of […]-acetylated histone H1 after SDS-PAGE
Assay type: biochemical
Settings: pH 8.0, 30 °C, 4 h

[1] = 50 uM inhibitor, calf thymus histone H1, [14C]-acetyl-CoA

T1 sequence (E2QC33 entry or part of it): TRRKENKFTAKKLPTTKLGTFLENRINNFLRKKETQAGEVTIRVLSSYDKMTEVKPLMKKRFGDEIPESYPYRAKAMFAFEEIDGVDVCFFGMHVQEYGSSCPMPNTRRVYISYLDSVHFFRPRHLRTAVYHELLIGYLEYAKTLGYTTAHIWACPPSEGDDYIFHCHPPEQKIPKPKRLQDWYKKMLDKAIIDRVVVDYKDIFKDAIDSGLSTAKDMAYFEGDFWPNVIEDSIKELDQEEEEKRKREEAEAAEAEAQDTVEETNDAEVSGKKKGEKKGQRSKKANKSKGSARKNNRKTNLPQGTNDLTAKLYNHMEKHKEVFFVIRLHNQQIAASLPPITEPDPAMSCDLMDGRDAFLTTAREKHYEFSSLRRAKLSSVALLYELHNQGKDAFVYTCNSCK

| Structure (SMILES) | autoradiography of [14C]-acetylated histone H1 after SDS-PAGE [1] | autoradiography of [14C]-acetylated histone H1 after SDS-PAGE (calf thymus histone H1 as acetyl acceptor, no inhibitor, labelled compound) |
| --- | --- | --- |
| C=C(C)[C@@H](CC=C(C)C)C[C@@]12C[C@@H](CC=C(C)C)C(C)(C)[C@@](CC=C(C)C)(C(=O)C(=C(O)c3ccc(O)c(O)c3)C1=O)C2=O [garcinol] | In the presence of HAT inhibitors in the incubation solution, however, H1 acetylation signals were eliminated | – |
| COc1cc(/C=C/C(=O)CC(=O)/C=C/c2ccc(O)c(OC)c2)ccc1O [curcumin] | In the presence of HAT inhibitors in the incubation solution, however, H1 acetylation signals were eliminated | – |
| CC(=O)SCCNC(=O)CCNC(=O)[C@H](O)C(C)(C)COP(=O)(O)OP(=O)(O)OC[C@H]1O[C@@H](n2cnc3c(N)ncnc32)[C@H](O)[C@@H]1OP(=O)(O)O [[14C]-acetyl-CoA] | – | in the absence of HAT inhibitors in the incubation solution, LymCBP acetylated histone H1 |
| CCCCCCCCCCCCCCCc1cccc(O)c1C(=O)O [anacardic acid] | In the presence of HAT inhibitors in the incubation solution, however, H1 acetylation signals were eliminated | – |
